Measurements: patent publication US9320722B2, “Regulators of aldehyde dehydrogenase ALDH3A1 and related therapeutic methods” (Indiana University Research and Technology Corporation, priority 2013, dated 2016)

How the values were obtained:
SF767 cells = experiment: MTT assay for cell proliferation / mafosfamide sensitivity, SF767; type: cell-based; details: 10 μM inhibitor + mafosfamide
CCD13Lu cells = experiment: MTT assay for cell proliferation / mafosfamide sensitivity, CCD13Lu; type: cell-based; details: 10 μM compound + mafosfamide, FIG. 13c

Cc1ccc(S(=O)(=O)n2c(C)nc3ccccc32)cc1 [Compound A10]
chemosensitivity to mafosfamide (in words), SF767 (SF767 cells): significantly increased chemosensitivity | effect with mafosfamide (in words), CCD13Lu (CCD13Lu cells): decreased cell proliferation
